# From patent US20220401460A1, “MODULATING RESISTANCE TO BCL-2 INHIBITORS” (Dana-Farber Cancer Institute, Inc., priority 2018, published 2022)
# Residues, ends and D or L forms follow the SMILES beside them. *: point of attachment. Cbz = O=C(OCc1ccccc1)*; CH2F = FC*
# Tests used:
# [1] = test system: OCI-Ly1-R cells; assay: Cell Titer-Glo viability assay, venetoclax-resistant OCI-Ly1-R cells; assay type: cell-based, human; settings: for restoration of venetoclax sensitivity: combination with venetoclax, OCI-Ly1-R cells
# [2] = test system: ID3 knockout OCI-Ly1 cells; assay: Viability of single-cell clones from ID3 knockout OCI-Ly1 cells; assay type: cell-based, human; settings: single cell clones from ID3 knockout line, viability at 24 hours
# Protocol: (§1) Cell viability assay. The Cell Titer-Glo Luminescent Cell Viability Assay (Promega) was used to determine the relative number of viable cells after drug treatment. 0.2×10^6 cells/mL were seeded in a 24 well-plate and treated with drugs for 24 or 48 hours. The viability assay was conducted using the manufacturer's protocol after treatment. Values were normalized to DMSO-treated cells. Plates were read on a SpectraMax M3 reader (Molecular Devices).
# Single-cell cloning of the ID3 knockout. OCI-Ly1 cells was performed using […] dilution strategy. Cells from the bulk ID3 OCI-Ly1 were seeded at a concentration of 0.5 cells/well in a 96-well plate (5 plates per cell line). To investigate the presence of mutations, 6 clones per sgRNA were analyzed by PCR and Sanger sequencing using primers flanking the target sites for the sgRNAs (Forward primer: 5′-[…]-3′ (SEQ ID NO:1); Reverse:5′-[…]-3′ (SEQ ID NO:2)). The absence of ID3 protein were confirmed in clones harboring loss-of-function mutations by western blot (FIG. 8d). Three different knockout single-cell clones for each sgRNA were used for further functional studies.
# [3] = test system: OCI-Ly1-S cells; assay: Seahorse oxygen consumption (OCR) and extracellular acidification rate (ECAR), OCI-Ly1-S; assay type: cell-based, human
# Protocol: Measurement of oxygen consumption and extracellular acidification rate. For each condition, 1.25×10^5 cells were counted and plated on a Seahorse plate coated with Cell-Tak (Corning Life Sciences) in Seahorse XF DMEM media (Agilent). OCR and ECAR were recorded using a Seahorse XF96 Analyzer (Agilent) for 24 consecutive measurements. OCR is measured before and after the addition of inhibitors to assess mitochondrial function by deriving several parameters of mitochondrial respiration: (i) basal respiration, (ii) ATP-linked respiration and proton leak respiration (after 3 μM oligomycin [Sigma], a complex V inhibitor) and (iii) maximal respiration (after 1 μM carbonyl cyanide m-chlorophenyl hydrazine (CCCP) [Sigma], a protonophore).
# To measure the effect of venetoclax on OCR/ECAR, cells were pre-treated for 1 h with […] of zVAD-FMK (Abcam) or left untreated and OCR/ECAR were recorded for 4 measurements before injection of venetoclax at a final concentration of 100 nM. DMSO injection was used as control.
# [4] = test system: OCI-Ly1-S cells; assay: Cell Titer-Glo viability assay and Chou-Talalay synergy analysis, parental OCI-Ly1-S cells; assay type: cell-based, human
# [5] = test system: knockout and overexpression OCI-Ly1 cell lines; assay: Viability/growth of single-gene knockout and overexpression OCI-Ly1 cell lines; assay type: cell-based, human; settings: individual knockout cell lines vs lines transduced with 2 non-targeting control sgRNAs; P<0.05
# Protocol: as §1
# Cloning of sgRNA vectors. […]
# Generation of engineered cell lines. […] As confirmation that the engineered cell lines expressed the expected alterations, Applicants: (i) evaluated the expression of the targeted protein by western-blotting (FIG. 6d), and (ii) for the CRISPR-Cas9 engineered cell lines, performed targeted DNA sequencing for the CRISPR target sites before and after 2 weeks of exposure to venetoclax (100 nM), and assessed the proportion of frameshift indels (FIG. 6g). […] Following PCR, samples were purified with Agencourt AMPure XP beads (Beckman Coulter) and quantified on a Bioanalyzer (Agilent) with High Sensitivity DNA chips. Sample libraries were diluted to 4 nM, pooled, and ran on the Illumina MiSeq platform using single-end sequencing with the following parameters: read 1: 296nt, index 1: 6nt.
# [6] = test system: CLL patients; assay: CLL patients treated with venetoclax in clinical trials (response, progression); assay type: in vivo, human
# Source text: Human samples. Genomic DNA was isolated (DNAeasy Blood and Tissue Kit, Qiagen) from specimens collected from CLL patients enrolled on clinical trials of venetoclax treatment (NCT01328626, NCT02141282), approved by and conducted in accordance with the principles of the Declaration of Helsinki and with the approval of the Institutional Review Boards (IRB) of the University of Texas/MD Anderson Cancer Center (MDACC; Patients 1, 3, 4) or of Dana-Farber Cancer Institute (DFCI; Patient 2, 5, 6). Blood and/or tissue tumor samples were collected at baseline, before initiation of venetoclax therapy, and at relapse or progression on venetoclax.
# [7] = 6 CLL patients progressing on venetoclax
compound,measurement,setting,value
CC[C@H]1/C=C/C=C/C[C@@H](C)[C@H](O)[C@@](C)(O)C(=O)[C@@H](C)[C@H](O)[C@@H](C)C(=O)[C@@H](C)[C@H](O)[C@@H](C)/C=C/C(=O)O[C@@H]2[C@H](C)[C@H](CC1)O[C@]1(CC[C@H](C)[C@H](C[C@@H](C)O)O1)[C@H]2C [oligomycin],restoration of venetoclax sensitivity,[1],restore sensitivity to venetoclax
same,sensitivity to the combination with venetoclax vs control cells,[2],more sensitive
COC(=O)C[C@H](NC(=O)[C@H](C)NC(=O)[C@@H](NC(=O)OCc1ccccc1)C(C)C)C(=O)CF [zVAD] (Cbz-Val-Ala-Asp(OMe)-CH2F),prevention of venetoclax impact on OXPHOS,[3]; 1 h pre-treatment with zVAD-FMK before venetoclax,not fully prevented
Cc1c(-c2c(-c3ccc(F)o3)sc3ncnc(O[C@H](Cc4ccccc4OCc4ccnn4CC(F)(F)F)C(=O)O)c23)ccc(OCCN2CCN(C)CC2)c1Cl [S63845],synergy with venetoclax,[1]; OCI-Ly-R cells,synergized
same,restoration of venetoclax sensitivity,[1],restore venetoclax sensitivity
same,combination index (synergy with venetoclax),"[4]; combination with venetoclax, OCI-Ly1-S cells, Chou-Talalay method",< 1
CC1(C)CCC(CN2CCN(c3ccc(C(=O)NS(=O)(=O)c4ccc(NCC5CCOCC5)c([N+](=O)[O-])c4)c(Oc4cnc5[nH]ccc5c4)c3)CC2)=C(c2ccc(Cl)cc2)C1 [venetoclax],IC50,"[1]; Homo sapiens, OCI-Ly1-R cells generated by chronic in vitro drug exposure",1000 nM
same,decrease in oxygen consumption,"[3]; OCI-Ly1-S cells, within 20 minutes after drug exposure, venetoclax 100 nM",2 fold
same,median increase in IC50,[5],2.1 fold
same,median time to relapse,[6]; [7],16.4 months
same,range of time to relapse,[6]; [7],5.1-22.8 months
same,Time to progression (months),"[6]; Patient 1, daily dose 400 mg",22.8 months
same,Time to progression (months),"[6]; Patient 2, daily dose 400 mg",7.1 months
same,Time to progression (months),"[6]; Patient 3, daily dose 400 mg",16.4 months
same,Time to progression (months),"[6]; Patient 4, daily dose 400 mg",5.1 months
same,Time to progression (months),"[6]; Patient 5, daily dose 400 mg",8.2 months
same,Time to progression (months),"[6]; Patient 6, daily dose 1200 mg then 400 mg",22.8 months
same,IC50,"[4]; Homo sapiens, parental OCI-Ly1-S cells",4 nM
